Reference: patent US11149036B2, “3-(1H-pyrazol-4-yl)pyridine allosteric modulators of the M4 muscarinic acetylcholine receptor” (Merck Sharp & Dohme Corp., priority 2017, dated 2021)

biological target: T1, human M4 muscarinic acetylcholine receptor (Homo sapiens, UniProt P08173); experiment: human FLIPR-based M4 PAM assay (CHO-K1 cells with human M4 receptor and Gaqi5, calcium dye fluorescence); format: cell-based; details: inflection point (IP) of dose response curve, acetylcholine added at 20% of maximum response, read-out: M4 FLIPPR Hu IP
T1 construct: expressed in transfected cells; host or cells: CHO-K1
T1 sequence (P08173 1-479): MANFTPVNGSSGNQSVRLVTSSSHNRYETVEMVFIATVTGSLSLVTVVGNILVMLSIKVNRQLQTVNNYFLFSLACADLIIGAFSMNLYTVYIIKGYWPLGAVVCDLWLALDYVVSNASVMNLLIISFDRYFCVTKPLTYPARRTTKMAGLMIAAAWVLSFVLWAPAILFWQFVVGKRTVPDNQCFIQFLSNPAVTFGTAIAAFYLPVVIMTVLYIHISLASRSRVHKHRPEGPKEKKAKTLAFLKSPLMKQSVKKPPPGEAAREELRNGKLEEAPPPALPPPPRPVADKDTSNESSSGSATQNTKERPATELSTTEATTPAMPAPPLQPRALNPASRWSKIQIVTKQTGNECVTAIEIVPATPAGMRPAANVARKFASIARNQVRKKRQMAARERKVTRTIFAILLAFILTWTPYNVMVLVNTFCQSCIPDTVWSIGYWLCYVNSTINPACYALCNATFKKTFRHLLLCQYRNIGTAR
In short: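 CHO-K1 cells stably expressing human M4 with chimeric Gaqi5, calcium-dye loaded ~1 h at 37° C; compound added at increasing concentrations 4 min before acetylcholine at an EC20 concentration (sometimes a further EC70 addition).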

SMILES	EC50 [nM]
O=C1c2cc(-c3ncccc3-c3cnn(CC4(F)CCCC4)c3)ccc2CN1CC1CCC1 [Example 140, 2-(cyclobutylmethyl)-6-(3-(1-((1-fluorocyclopentyl)methyl)-1H-pyrazol-4-yl)pyridin-2-yl)isoindolin-1-one]	68
Cc1nc2cc(-c3nc(C#N)c(C)cc3-c3cnn(CC4(F)CCCC4)c3)ccn2n1 [Example 141, 5-(1-((1-fluorocyclopentyl)methyl)-1H-pyrazol-4-yl)-3-methyl-6-(2-methyl-[1,2,4]triazolo[1,5-a]pyridin-7-yl)picolinonitrile]	50
Cc1cc(-c2cnn(CC3(F)CCCC3)c2)c(-c2cnc3c(c2)ncn3C)nc1C#N [Example 142, 5-(1-((1-fluorocyclopentyl)methyl)-1H-pyrazol-4-yl)-3-methyl-6-(3-methyl-3H-imidazo[4,5-b]pyridin-6-yl)picolinonitrile]	104
Cc1cc(-c2cnn(CC3(F)CCCC3)c2)c(-c2ccn3ncnc3c2)nc1C#N [Example 143, 6-([1,2,4]triazolo[1,5-a]pyridin-7-yl)-5-(1-((1-fluorocyclopentyl)methyl)-1H-pyrazol-4-yl)-3-methylpicolinonitrile]	71
CC1(Cn2ncc(-c3ccc(C#N)nc3-c3ccn4ccnc4c3)c2C#N)CCCC1 [Example 144, 5-(5-cyano-1-((1-methylcyclopentyl)methyl)-1H-pyrazol-4-yl)-6-(imidazo[1,2-a]pyridin-7-yl)picolinonitrile]	54
COc1cc2ccc(-c3nc(C)ccc3-c3cnn(CC4CCC5(CC5)C4)c3)cc2nn1 (centres unmarked) [Example 145, 3-methoxy-7-(6-methyl-3-(1-(spiro[2.4]heptan-5-ylmethyl)-1H-pyrazol-4-yl)pyridin-2-yl)cinnoline]	92
c1cnc(-c2ccc3cccnc3c2)c(-c2cnn(CC3CCCC3)c2)c1 [Example 147, 7-(3-(1-(cyclopentylmethyl)-1H-pyrazol-4-yl)pyridin-2-yl)quinoline]	50
Cc1ccc(-c2cnn(CC3CCCC3)c2)c(-c2ccc3c(c2)nc(Cl)n3C)n1 [Example 152, 2-chloro-5-(3-(1-(cyclopentylmethyl)-1H-pyrazol-4-yl)-6-methylpyridin-2-yl)-1-methyl-1H-benzo[d]imidazole]	80
COCc1nc2cc(-c3nc(C#N)ccc3-c3cnn(CC4(F)CCCC4)c3)ccn2n1 [Example 155, 5-(1-((1-fluorocyclopentyl)methyl)-1H-pyrazol-4-yl)-6-(2-(methoxymethyl)-[1,2,4]triazolo[1,5-a]pyridin-7-yl)picolinonitrile]	55
N#Cc1ccc(-c2nc(C#N)ccc2-c2cnn(CC3CCCC3)c2)cc1 [Example 160, 6-(4-cyanophenyl)-5-(1-(cyclopentylmethyl)-1H-pyrazol-4-yl)picolinonitrile]	48
CC1(Cn2cc(-c3ccc(C#N)nc3-c3ccc4cc(CO)nnc4c3)cn2)CCCC1 [Example 163, 6-(3-(hydroxymethyl)cinnolin-7-yl)-5-(1-((1-methylcyclopentyl)methyl)-1H-pyrazol-4-yl)picolinonitrile]	46
CC1(Cn2cc(-c3ccc(C#N)nc3-c3ccc4cc(CF)nnc4c3)cn2)CCCC1 [Example 164, 6-(3-(fluoromethyl)cinnolin-7-yl)-5-(1-((1-methylcyclopentyl)methyl)-1H-pyrazol-4-yl)picolinonitrile]	85
c1cnc2cc(-c3nc(-n4cccn4)ccc3-c3cnn(CC4CCCC4)c3)ccc2c1 [Example 167, 7-(3-(1-(cyclopentylmethyl)-1H-pyrazol-4-yl)-6-(1H-pyrazol-1-yl)pyridin-2-yl)quinoline]	98

Continued by falling EC50, values first:

EC50 [nM]	SMILES
45	CC1(Cn2cc(-c3ccc(C#N)nc3-c3ccc4cc(N5CCC5)cnc4c3)cn2)CCCC1 [Example 161, 6-(3-(azetidin-1-yl)Quinolin-7-yl)-5-(1-((1-methylcyclopentyl)methyl)-1H-pyrazol-4-yl)picolinonitrile]
44	Cn1c(Cl)nc2cc(-c3nc(C#N)ccc3-c3cnn(CC4(C)CCCC4)c3)ccc21 [Example 154, 6-(2-chloro-1-methyl-1H-benzo[d]imidazol-5-yl)-5-(1-((1-methylcyclopentyl)methyl)-1H-pyrazol-4-yl)picolinonitrile]
40	Cc1cn2ccc(-c3nc(C#N)c(Cl)cc3-c3cnn(CC4(C)CCCC4)c3)cc2n1 [Example 162, 3-chloro-5-(1-((1-methylcyclopentyl)methyl)-1H-pyrazol-4-yl)-6-(2-methylimidazo[1,2-a]pyridin-7-yl)picolinonitrile]
26	FC(F)Oc1ccc(-c2cnn(CC3CCCC3)c2)c(-c2ccc3cccnc3c2)n1 [Example 166, 7-(3-(1-(cyclopentylmethyl)-1H-pyrazol-4-yl)-6-(difluoromethoxy)pyridin-2-yl)quinoline]
24	N#Cc1ccc(-c2cnn(CC3(F)CCCC3)c2)c(-c2ccn3cc(CF)nc3c2)n1 [Example 135, 5-(1-((1-fluorocyclopentyl)methyl)-1H-pyrazol-4-yl)-6-(2-(fluoromethyl)imidazo[1,2-a]pyridin-7-yl)picolinonitrile]
24	C#Cc1ccc(-c2cnn(CC3CCCC3)c2)c(-c2ccc3cccnc3c2)n1 [Example 168, 7-(3-(1-(cyclopentylmethyl)-1H-pyrazol-4-yl)-6-ethynylpyridin-2-yl)quinoline]
23	N#Cc1ccc(-c2cnn(CC3(F)CCCC3)c2)c(-c2ccn3c(Br)cnc3c2)n1 [Example 153, 6-(3-bromoimidazo[1,2-a]pyridin-7-yl)-5-(1-((1-fluorocyclopentyl)methyl)-1H-pyrazol-4-yl)picolinonitrile]
21	CC1(Cn2cc(-c3cc(F)c(F)nc3-c3ccn4ccnc4c3)cn2)CCCC1 [Example 137, 7-(5,6-difluoro-3-(1-((1-methylcyclopentyl)methyl)-1H-pyrazol-4-yl)pyridin-2-yl)imidazo[1,2-a]pyridine]
19	Cc1ccc(-c2cnn(CC3CCCC3)c2)c(-c2ccc3cc(N)nnc3c2)n1 [Example 158, 7-(3-(1-(cyclopentylmethyl)-1H-pyrazol-4-yl)-6-methylpyridin-2-yl)cinnolin-3-amine]
17	O=C1c2cc(-c3ncccc3-c3cnn(CC4(F)CCCC4)c3)ccc2CN1C1CCC1 [Example 139, 2-cyclobutyl-6-(3-(1-((1-fluorocyclopentyl)methyl)-1H-pyrazol-4-yl)pyridin-2-yl)isoindolin-1-one]
14	Cc1ccc(-c2cnn(CC3CCCC3)c2)c(-c2ccc3cc(I)nnc3c2)n1 [Example 159, 7-(3-(1-(cyclopentylmethyl)-1H-pyrazol-4-yl)-6-methylpyridin-2-yl)-3-iodocinnoline]
7	COc1cc2ccc(-c3nc(C)c(C)cc3-c3cnn(CC4(C)CCCC4)c3)cc2nn1 [Example 157, 7-(5,6-dimethyl-3-(1-((1-methylcyclopentyl)methyl)-1H-pyrazol-4-yl)pyridin-2-yl)-3-methoxycinnoline]
7	Clc1ccc(-c2cnn(CC3CCCC3)c2)c(-c2ccc3cccnc3c2)n1 [Example 165, 7-(6-chloro-3-(1-(cyclopentylmethyl)-1H-pyrazol-4-yl)pyridin-2-yl)quinoline]
